# Experimental data reported in publication PMC8266241, “Tetralone derivatives are MIF tautomerase inhibitors and attenuate macrophage activation and amplify the hypothermic response in endotoxemic mice” (Journal of Enzyme Inhibition and Medicinal Chemistry, 2021).
# What was measured:
# recombinant human MIF [1] = biological target: T1, recombinant human MIF (Homo sapiens, UniProt P14174); assay: Tautomerase assay: enol-keto tautomeric conversion of phenylpyruvate (ketonase reaction); format: biochemical; conditions: for IC50: enol-keto conversion of phenylpyruvate, 100 µM substrate, pH 6.5, read-out: Inhibition of ketonase (IC50); for IC50enolase/IC50ketonase: selectivity for ketonase
# T1 construct: purchased ATGen Co. Ltd., Seoul, Republic of Korea
# T1 sequence (P14174 2-115 limits assumed): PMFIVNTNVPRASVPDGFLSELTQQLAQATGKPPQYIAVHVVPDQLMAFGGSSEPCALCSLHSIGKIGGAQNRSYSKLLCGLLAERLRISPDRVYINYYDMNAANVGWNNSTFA
# Method: The enol-keto tautomeric conversion of phenylpyruvate (ketonase reaction) was assessed at room temperature by monitoring the decrease in absorbance at 288 nm on a dual path Shimadzu 2100 UV spectrophotometer (Shimadzu, Kyoto, Japan) according to Taylor et al.[55] with minor modifications. Briefly, the 0.72 ml reaction mixture consisted of the enzyme at a final concentration of 0.4 µg/ml and the substrate in a 50 mM sodium phosphate buffer (pH = 6.5). The phenylpyruvate substrate was dissolved fresh in absolute ethanol to yield a final concentration of 100 µM. The reaction was monitored for 75 s at room temperature. A recombinant human MIF (from ATGen Co. Ltd., Seoul, Republic of Korea) was used as the enzyme source. Inhibitors were dissolved fresh in ethanol or DMSO. […] The compounds were diluted to achieve final concentrations of 200, 100, 50, 20, 5, 1, and 0.5 µM in the reaction mixture. All data presented have been derived from consonant measurements repeated at least three times. […] The areas under the curves obtained with and without the inhibitors were used to compare the conversion rates of the substrate.
# recombinant human MIF [2] = biological target: T1, recombinant human MIF; assay: Tautomerase assay: keto-enol tautomeric conversion of phenylpyruvate (enolase activity); format: biochemical; conditions: for IC50: keto-enol conversion of phenylpyruvate, read-out: Inhibition of enolase (IC50)
# RAW264.7 cells [3] = assay: ROS production in LPS-induced macrophages (DHR123); format: cell-based, mouse; conditions: 20 µM pre-treatment, 1 µg/ml LPS 24 h
# Method: (§1) In cell culture experiments, we used RAW264.7 mouse monocyte/macrophage cell line (ECACC, Salisbury, UK; passage number: 8–15) and RAW-Blue™ cells (Invivogen, Toulouse France, passage number: 10–14). RAW264.7 and RAW-Blue™ cells were cultured in 5% CO2 at 37 °C in endotoxin-tested Dulbecco’s Modified Eagle’s Medium (high glucose, 4.5 g/L, 2 mM L-glutamine; Corning, Corning Incorporated Costar, Corning, NY) supplemented with 10% FBS. For culturing RAW-Blue™ cells, we also added 100 µg/ml normocin and 200 µg/ml zeocin to the medium. The day before the experiments, cells were plated onto 24- or 96-well plates and cultured overnight. […] The freshly synthesised tetralone derivatives were dissolved in DMSO and applied in 20 µM concentration as a pre-treatment, added 30 min before LPS induction. To exclude the effects of vehicle, both CTRL and LPS-treated cells received the same amount of DMSO.
# To measure the amount of reactive oxygen species we seeded RAW264.7 cells onto 96-well plates in a density of 10^5cells/well. Cells were treated with the tetralones as a pre-treatment and they were induced with 1 µg/ml LPS for 24 h. Then 2 µM dihydrorhodamine123 (DHR123; Life Technologies, Carlsbad, CA) fluorescent dye was added and incubated for an additional 2 h. Fluorescent intensity of the dye (excitation 490 nm/emission 510–570 nm) was measured with Glomax Multi Detection System (Promega®, Madison, WI, USA).
# IL-6 in RAW264.7 cells = assay: IL-6 production, ELISA; format: cell-based, mouse; conditions: 20 µM pre-treatment, 1 µg/ml LPS 24 h
# Method: as §1, with “To exclude the effects of vehicle, both CTRL and LPS-treated cells received the same amount of DMSO.” left out
# (§2) For cytokine concentration measurements, RAW264.7 cells were cultured in 24-well plates at a density of 5*10^5 cells/well and treated with tetralones (pre-treatment, 20 µM) and with 1 µg/ml LPS for 24 h. TNF-α, IL-6 and CCL-2 levels were determined from the culturing media by using Ready-Set-Go ELISA kits (eBioscience, San Diego, CA, USA) for TNF-α and IL-6 detection and mouse CCL-2 uncoated ELISA-kit (Invitrogen, Vienna, Austria) for CCL-2 determination. ELISA-kits were applied as provided by the protocol of the manufacturer, the optical density was measured at 450 nm.
# RAW264.7 cells [4] = assay: Nitrite production in LPS-induced macrophages (Griess reagent); format: cell-based, mouse; conditions: 20 µM pre-treatment, 1 µg/ml LPS 24 h
# Method: as §1
# For nitrite measurements, we applied the same culturing conditions, treatments, and equipment as described above. After 24 h of incubation, 50 µl medium was removed and added to equal amount of Griess reagent (Sigma-Aldrich, St. Louis, MO, USA) in 96-well plate. The optical density was measured at 550 nm wavelength.
# TNF-α in RAW264.7 cells = assay: TNF-α production, ELISA; format: cell-based, mouse; conditions: 20 µM pre-treatment, 1 µg/ml LPS 24 h
# Method: as §1, with “To exclude the effects of vehicle, both CTRL and LPS-treated cells received the same amount of DMSO.” left out
# as §2
# [5] = tested on: NF-κB activation in RAW-Blue™ cells; assay: NF-κB activation reporter assay (QUANTI-Blue); format: cell-based, mouse; conditions: 20 µM pre-treatment, 1 µg/ml LPS 24 h, vs LPS-activated cells
# Method: as §1
# The detection of NF-κB activation was accomplished by using RAW-Blue™ cells. RAW-Blue™ cells are genetically modified RAW264.7 macrophages, which are able to secrete embryonic alkaline phosphatase (EAP) upon LPS induction and following NF-κB activation. The levels of EAP can be examined using QUANTI-Blue™ detection medium.
# RAW-Blue™ cells were seeded into 96-well plate at a density of 10^5cells/well. Cells were treated with tetralones (pre-treatment, 20 µM) and with 1 µg/ml LPS. 24 h after LPS treatment 20 µl medium was removed and incubated with 100 µl QUANTI-Blue™ detection medium (Invivogen; Toulouse, France) in 96-well plates. The optical density was measured at 600 nm.
Compound,IC50 (recombinant human MIF [1]) [µM],IC50 (recombinant human MIF [2]) [µM],further results
O=C1/C(=C/c2ccccc2)CCc2ccccc21 [Compound 2],127 ± 20,113 ± 16,–
COc1ccc(/C=C2\CCc3ccccc3C2=O)cc1 [Compound 5],57 ± 14.1,33.4 ± 8.8,–
O=C1/C(=C\c2ccccc2)CSc2ccccc21 [Compound 36],208 ± 42,633 ± 108,–
O=C1/C(=C/c2ccc(Br)cc2)COc2ccccc21 [Compound 33],311 ± 77,1890 ± 438,–
COc1cccc(/C=C2\COc3ccccc3C2=O)c1 [Compound 31],97 ± 20.7,205 ± 32,–
COc1ccc(/C=C2\CCc3ccccc3C2=O)cc1OC [Compound 17],585 ± 94,302 ± 63,–
O=C1/C(=C/c2ccc(Cl)cc2Cl)CCc2ccccc21 [Compound 13],16.9 ± 4.2,301 ± 42,IC50enolase/IC50ketonase (recombinant human MIF [1]): 18
O=C1/C(=C/c2cccs2)CCc2ccccc21 [Compound 20],54 ± 5.5,52.3 ± 7.6,–
COc1ccc(/C=C2\COc3ccccc3C2=O)cc1 [Compound 30],96 ± 29.9,425 ± 70,–
CN(C)c1ccc(/C=C2\CCc3ccccc3C2=O)cc1 [Compound 15],90.2 ± 15.1,495 ± 101,–
O=C1/C(=C/c2ccccc2Cl)CCc2ccccc21 [Compound 7],2640 ± 406,458 ± 73,–
O=C1/C(=C/c2ccc[nH]2)CCc2ccccc21 [Compound 21],142 ± 31,125 ± 39,–
O=C1/C(=C/c2ccccc2)COc2ccccc21 [Compound 27],267 ± 59,1740 ± 483,–
O=C1/C(=C/c2ccc(F)cc2)CCc2ccccc21 [Compound 10],72.4 ± 3.4,42.1 ± 4.3,–
O=C1/C(=C/c2ccncc2)CCc2ccccc21 [Compound 26],21 ± 6.9,209 ± 77,"decrease in ROS concentrations (RAW264.7 cells [3]; vs LPS-activated cells): ~20%; effect on IL-6 production (IL-6 in RAW264.7 cells): had the most dominant effect; lower nitrite concentrations (RAW264.7 cells [4]; vs LPS-activated cells): ~50%; IC50enolase/IC50ketonase (recombinant human MIF [1]): 10; effect on TNF-α production (TNF-α in RAW264.7 cells): reduced TNF-α production; effect on NF-κB activation [5]: slight, but statistically significant inhibitory effect"
"O=C1/C(=C/c2ccccc2)Cc2ccccc21 [Compound 1, E-2-phenylmethylene-1-indanone]",82.8 ± 16.5,20.2 ± 3.9,–
O=C1/C(=C/c2ccc(Cl)c(Cl)c2)CCc2ccccc21 [Compound 12],2620 ± 696,91.5 ± 9,–
N#Cc1ccc(/C=C2\CCc3ccccc3C2=O)cc1 [Compound 16],146 ± 17,43.2 ± 12.4,–

Compound,IC50 (recombinant human MIF [1]) [µM],IC50 (recombinant human MIF [2]) [µM],further results
O=C1/C(=C/c2ccco2)CCc2ccccc21 [Compound 19],57.7 ± 12.6,25.4 ± 4.7,–
O=C1/C(=C/c2ccccc2)C(c2ccccc2)Oc2ccccc21 (stereo not shown) [Compound 35],419 ± 113,–,–
O=C1/C(=C/c2ccc(Br)cc2)CCc2ccccc21 [Compound 8],52.2 ± 11.5,232 ± 54,–
O=C1/C(=C/c2cccc(Br)c2)CCc2ccccc21 [Compound 9],7340 ± 1020,3350 ± 424,–
O=C1/C(=C/c2ccccc2)C[S+]([O-])c2ccccc21 (racemic) [Compound 37],94.6 ± 25.4,193 ± 59,–
Cc1cccc(/C=C2\COc3ccccc3C2=O)c1 [Compound 29],56.1 ± 8.8,443 ± 112,–
O=C(O)c1ccc(/C=C2\CCc3ccccc3C2=O)cc1 [Compound 14],187 ± 32,37.7 ± 16.3,–
"O=C1/C(=C/c2ccccc2)CCCc2ccccc21 [Compound 3, E-2-phenylmethylene-1-benzosuberone]",84 ± 15.3,129 ± 19,–
O=C1/C(=C/c2ccc(Cl)cc2)CCc2ccccc21 [Compound 6],59.1 ± 9.7,42.8 ± 3.1,–
O=C1/C(=C/c2c[nH]c3ccccc23)CCc2ccccc21 [Compound 23],58.8 ± 10.6,2.89 ± 0.75,"effect on ROS level (RAW264.7 cells [3]): induced a slight increase; effect on nitrite production (RAW264.7 cells [4]): could also inhibit nitrite production, but to a lower extent; IC50ketonase/IC50enolase (recombinant human MIF [2]; selectivity for enolase): 20; effect on NF-κB activation [5]: slight, but statistically significant inhibitory effect"
O=C1/C(=C/c2c(Cl)cccc2Cl)CCc2ccccc21 [Compound 11],58.9 ± 10.3,35.5 ± 5.9,–
O=C1/C(=C/c2ccccc2Br)COc2ccccc21 [Compound 34],98.3 ± 16,3200 ± 887,–
Cn1cccc1C=C1CCc2ccccc2C1=O [Compound 22],23.8 ± 3.8,27.8 ± 5.6,–
O=C1C(=Cc2cccnc2)CCc2ccccc21 [Compound 25],20.3 ± 5.5,28.6 ± 6,–
O=C1/C(=C/c2ccc3c(c2)OCO3)CCc2ccccc21 [Compound 18],50.7 ± 6,213 ± 31,–
O=C1/C(=C/c2ccccc2)CS(=O)(=O)c2ccccc21 [Compound 38],160 ± 38,151 ± 27,–
Cc1ccc(/C=C2\CCc3ccccc3C2=O)cc1 [Compound 4],16.5 ± 3.4,2290 ± 343,"effect on ROS level (RAW264.7 cells [3]): failed to modify ROS level; effect on nitrite production (RAW264.7 cells [4]): could also inhibit nitrite production, but to a lower extent; effect on NF-κB activation [5]: slight, but statistically significant inhibitory effect"
Cc1ccc(/C=C2\COc3ccccc3C2=O)cc1 [Compound 28],102 ± 19,3620 ± 829,–
